Laboratory results as given in the supplement of paper PMC6470124.

Experiments:
[1] = absolute recovery over vacuum-assisted evaporative concentration; higher = better recovery; conditions: enrichment method: VEC
Procedure, shortened: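 Samples of influent (6 mL), effluent (15 mL) and surface or nanopure water (60 mL) were spiked with standards before or after concentration, or left unspiked, at 200 ng/L (nanopure/surface) or 1000 ng/L (wastewater), adjusted by class and compound. Concentration was by evaporation at 55 °C and 20 mbar to about 0.3 mL, followed by adjustment to 0.4 mL and centrifugation. Internal standards were then added for LC-HRMS/MS analysis. Absolute recovery was (response ratio pre − unspiked)/(post − unspiked) × 100, using averages of ≥ 2 replicates.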

[2] = absolute recovery over mixed-bed multilayer solid-phase extraction; higher = better recovery; conditions: enrichment method: SPE
Procedure, shortened: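 Wastewater (100–250 mL, pH 6.5, glass-fibre filtered) and unfiltered nanopure water (1000 mL) were extracted on a three-layer mixed-bed cartridge, with standards spiked before extraction, after it, or not at all at 1000 ng/L and 200 ng/L respectively, apart from some classes. Internal standards were then added for liquid chromatography with high-resolution tandem mass spectrometry in both ionisation modes. Absolute recovery compares background-corrected response ratios of pre- and post-spiked samples across at least two replicates.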

[3] = LC retention time (Atlantis T3, 5-95% MeOH gradient, 0.1% formic acid); higher = more retained / less polar
Procedure, shortened: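 Retention times were recorded for reference standards on a polar reversed-phase C18 column. The standards were of purity ≥ 95%, and the Atlantis T3 column (3 × 150 mm, 3 μm) was run at 0.3 mL/min with a gradient from 5 to 95% methanol over 17.5 min, both water and methanol containing 0.1% formic acid. Detection used high-resolution tandem mass spectrometry on a QExactive Plus, with positive and negative electrospray in separate runs, and peaks were integrated in TraceFinder (5 ppm tolerance, at least three points per peak) before being checked by hand.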

Row | Compound | absolute recovery ([1]; wastewater effluent) [%] | absolute recovery ([1]; wastewater influent) [%] | absolute recovery ([2]; nanopure water) [%] | absolute recovery ([2]; surface water) [%] | absolute recovery ([2]; wastewater effluent) [%] | absolute recovery ([2]; wastewater influent) [%] | LC retention time [3] [min]
1 | CC12C=CC(=O)C=C1CCC1C2C(O)CC2(C)C1CCC2(O)C(=O)CO (centres undefined) [Prednisolon] | 104 | 63.1 | 88 | 82.7 | 82.1 | 91.4 | 18
2 | C=CC(=O)OCCOC(=O)CCC(=O)[O-] [Mono(2-acryloyloxyethyl)-succinate] | 79.2 | 31.6 | 37.8 | 71.7 | 61.7 | 53.1 | 13.7
3 | CCC(C)c1cc([N+](=O)[O-])cc([N+](=O)[O-])c1[O-] (centres undefined) [Dinoseb] | 94.2 | 91.8 | 103 | 82.6 | 89.1 | 123 | 21.5
4 | C#CC[N+](C)([O-])C(C)Cc1ccccc1 (centres undefined) [Deprenyl-N-Oxide] | 102 | 106 | 68.6 | 71.5 | 70.5 | 77.3 | 12.2
5 | CCS(=O)(=O)c1cccnc1S(=O)(=O)[N-]C(=O)Nc1nc(OC)cc(OC)n1 [Rimsulfuron] | 93.8 | 85 | 127 | 124 | 95 | 95.2 | 17.6
6 | CCc1ccc(CCOc2ccc(CC3SC(=O)[N-]C3=O)cc2)nc1 (centres undefined) [Pioglitazone] | 107 | 104 | 93.3 | 98.1 | 104 | 90.7 | 14.3
7 | CC[N+]1([O-])CCCC1CNC(=O)c1cc(S(=O)(=O)CC)c(N)cc1OC (centres undefined) [Amisulpride-N-Oxide] | 105 | 105 | 99.2 | 95.3 | 93.2 | 93.4 | 11.2
8 | COCC(=O)Nc1c(I)c(C(=O)NCC(O)CO)c(I)c(C(=O)N(C)CC(O)CO)c1I (centres undefined) [Iopromid] | 108 | 90.1 | 86.3 | 79.5 |  | 65.9 | 10.1
9 | COc1cccc(C(=O)NN(C(=O)c2cc(C)cc(C)c2)C(C)(C)C)c1C [Methoxyfenozid] | 104 | 98.9 | 104 | 103 | 98.1 | 94.8 | 19.7
10 | CC12CCC(=O)C=C1CCC1C2C(=O)CC2(C)C1CCC2(O)C(=O)CO (centres undefined) [Cortison] | 99.8 | 54.6 | 74.9 | 75.6 | 74.8 | 95.2 | 17.5
11 | O=C(NCc1ncc(C(F)(F)F)cc1Cl)c1c(Cl)cccc1Cl [Fluopicolide] | 115 | 109 | 95.7 | 104 | 97.2 | 93.4 | 19.6
12 | COc1nc(NC(C)C)nc(NC(C)C)n1 [Prometon F] | 104 | 106 | 88.1 | 95.5 | 91.6 | 92.7 | 15.8
13 | COc1ccc(C(C[N+](C)(C)[O-])C2(O)CCCCC2)cc1 (centres undefined) [Venlafaxine-N-Oxide] | 105 | 107 | 93.2 | 92.8 | 94.6 | 79.7 | 14.6
14 | O=C(Nc1ccccc1)N(Cc1ccc(Cl)cc1)C1CCCC1 [Pencycuron] | 117 | 124 | 84.2 | 110 |  | 80.4 | 21.4
15 | CC12C=CC(=O)C=C1CCC1C2C(=O)CC2(C)C1CCC2(O)C(=O)CO (centres undefined) [Prednisone] | 96.6 | 58.2 | 81 | 78.3 | 76.4 | 87.1 | 17.3
16 | CCNc1nc(NCC)nc(OC)n1 [Simeton] | 101 | 102 | 77.1 | 86 | 85.7 | 88.7 | 13
17 | CC12CC3CC(C)(C1)CC([NH3+])(C3)C2 [Memantine] | 100 | 114 | 83.4 | 83.5 | 89.2 | 78 | 14.9
18 | Nc1[nH]c(=O)ncc1F [5-Fluoro-Cytosine] | 107 | 58.4 | 4.4 | 5.9 | 5.4 | 4.3 | 3.63
19 | COc1ccc2c(c1)c(CC(=O)OCC(=O)[O-])c(C)n2C(=O)c1ccc(Cl)cc1 [Acemetacin] | 97.8 | 99.4 | 76.1 | 59.7 | 75.6 | 116 | 21.4
20 | O=C([O-])c1cccc(Oc2ccccc2)c1 [3-Phenoxybenzoic-acid] | 98.8 | 102 | 103 |  | 96.1 | 99.4 | 19.8
21 | CCOc1ccc2ccccc2c1C(=O)NC1C(=O)N2C1SC(C)(C)C2C(=O)[O-] (centres undefined) [Nafcillin] | 111 | 144 | 74.1 | 27 | 36.7 | 44.8 | 19
22 | Cc1ccc(NC=O)c(C)c1 [2-4-dimethylphenylformamid] | 108 | 132 | 107 | 101 | 99.8 | 96.3 | 16.5
23 | CC(C)N1C(=O)N(c2ccccc2)CSC1=NC(C)(C)C [Buprofezin] | 75.3 | 100 | 67.9 | 86.2 | 87.5 | 118 | 22
24 | Cn1cc(C(=O)Nc2ccc(F)cc2-c2ccc(Cl)c(Cl)c2)c(C(F)F)n1 [Bixafen] | 109 | 108 | 95.4 | 101 | 102 | 76.1 | 20.5
25 | CC1(C)CON(Cc2ccccc2Cl)C1=O [Clomazon] | 80.3 | 78 |  | 92.1 | 82.7 | 87.1 | 19
26 | CSc1nnc(C(C)(C)C)c(=O)n1N [Metribuzin] | 101 | 99.6 | 91.1 | 94.1 | 89.8 | 95.2 | 17.3

Row | Compound | absolute recovery ([1]; wastewater effluent) [%] | absolute recovery ([1]; wastewater influent) [%] | absolute recovery ([2]; nanopure water) [%] | absolute recovery ([2]; surface water) [%] | absolute recovery ([2]; wastewater effluent) [%] | absolute recovery ([2]; wastewater influent) [%] | LC retention time [3] [min]
27 | c1ccc2[nH]c(-c3cscn3)nc2c1 [Thiabendazol] | 102 | 105 | 79.2 | 77.5 | 81.8 | 92.3 | 11.7
28 | CCC1OC(=O)C(C)C(OC2CC(C)(OC)C(O)C(C)O2)C(C)C(OC2OC(C)CC([NH+](C)C)C2O)C(C)(O)CC(C)C[NH+](C)C(C)C(O)C1(C)O (centres undefined) [Azithromycin] | 97.9 |  | 77.4 | 93.7 | 90.8 | 96.7 | 13
29 | COC(=O)N(OC)c1ccccc1COc1ccn(-c2ccc(Cl)cc2)n1 [Pyraclostrobin] | 87.5 | 90.7 | 101 | 98 | 91.5 | 99.3 | 21.1
30 | COc1cccc(C2(O)CCCCC2C[NH3+])c1 (centres undefined) [N-Bisdesmethyl-Tramadol] | 105 | 98.5 | 50.1 | 47.4 | 46.3 | 70.2 | 12.8
31 | CC12CCC(=O)C=C1CCC1C2C(O)CC2(C)C1CCC2(O)C(=O)CO (centres undefined) [Hydrocortison] | 102 | 57.5 | 86.5 | 80.2 | 80.9 | 94 | 18
32 | CS(=O)(=O)c1ccc(C(=O)[C-]2C(=O)CCCC2=O)c(Cl)c1COCC(F)(F)F [Tembotrione] | 104 | 116 | 91.7 | 89.4 | 90.9 | 91.3 | 18.9
33 | Cc1cccc(C)c1NC(=O)C1CCCC[NH+]1C (centres undefined) [Mepivacaine] | 106 | 103 | 78.4 | 74.7 | 80 | 89.6 | 11.6
34 | COC(=O)c1cc(C(=O)OC)cc(S(=O)(=O)[O-])c1 [Dimethyl-5-Sulfoisophthalate] | 108 | 90.7 | 96 | 92.9 | 96.6 | 15.6 | 16.1
35 | COc1ccc(CCC(=O)c2c(O)cc(OC3OC(CO)C(O)C(O)C3OC3OC(C)C(O)C(O)C3O)cc2O)cc1O (centres undefined) [Neohesperidin-dihydrochalcon] | 51.7 | 49.7 | 71.4 | 78.7 | 90.1 | 85 | 16.3
36 | Cc1cccc(Nc2ccncc2S(=O)(=O)[N-]C(=O)NC(C)C)c1 [Torasemid] | 103 | 105 |  | 94.3 | 92.3 | 96 | 15.6
37 | CCCC(Cn1cncn1)c1ccc(Cl)cc1Cl (centres undefined) [Penconazol] | 105 | 105 | 98.5 | 97.1 | 100 | 87.3 | 20.9
38 | CCCC1CC(C(=O)NC(C(C)Cl)C2OC(SC)C(O)C(O)C2O)[NH+](C)C1 (centres undefined) [Clindamycin] | 100 | 73.2 | 90.1 | 94.8 | 90 | 78.7 | 14.6
39 | CCCc1nc2c(C)cc(-c3nc4ccccc4n3C)cc2n1Cc1ccc(-c2ccccc2C(=O)[O-])cc1 [Telmisartan] | 86.1 | 82.1 | 108 | 82.5 | 88.5 | 126 | 17.1
40 | NC(=O)c1cn(Cc2c(F)cccc2F)nn1 [Rufinamid] | 98.5 | 104 | 122 | 101 | 100 | 92.3 | 14
41 | NC(=O)N1c2ccccc2C(O)C(O)c2ccccc21 (centres undefined) [Carbamazepin-10-11-dihydro-10-11-dihydroxy] | 97.7 | 93.4 | 95.2 | 97.5 | 94.2 | 96 | 15.3
42 | Cc1cc(Cl)ccc1OCC(=O)[O-] [MCPA] | 102 | 103 | 96.1 | 92.9 | 92.7 | 94.2 | 19.3
43 | O=C1Nc2ccc(Cl)cc2C(C#CC2CC2)(C(F)(F)F)O1 (centres undefined) [Efavirenz] | 105 | 124 | 102 | 104 | 92.4 | 134 | 20.5
44 | CCNc1nc(Cl)nc(NC(C)C)n1 [Atrazin] | 99.3 | 97.7 | 96.7 | 98.1 | 93.8 | 91.5 | 18.5
45 | CC(C)N1C(=O)c2ccccc2[N-]S1(=O)=O [Bentazon] | 105 | 101 | 97.3 | 97.5 |  | 93.1 | 17.8
46 | CCOCCN(C(=O)CCl)C(=C(C)C)c1ccccc1 [Pethoxamid] | 87.2 | 92.5 | 95.5 | 85.7 | 86.7 | 99.6 | 20.3
47 | CC1CC2C3CCC4=CC(=O)C=CC4(C)C3(F)C(O)CC2(C)C1(O)C(=O)CO (centres undefined) [Betamethasone] | 104 | 102 | 93.8 | 88.9 | 90.5 | 98.7 | 18.7
48 | O=C(Nc1ccccc1-c1ccc(Cl)cc1)c1cccnc1Cl [Boscalid] | 88.4 | 105 | 102 | 97.2 | 95.2 | 104 | 19.4
49 | NC(=O)N=C1SCCN1Cc1ccc(Cl)nc1 [Thiacloprid-amide] | 106 | 104 | 109 | 108 | 104 | 96.3 | 13.2
50 | Cc1cc(Cl)ccc1OCCCC(=O)[O-] [MCPB] | 103 |  | 100 | 95.2 | 97.5 | 108 | 20.3
51 | CON(C)C(=O)Nc1ccc(Cl)c(Cl)c1 [Linuron] | 101 | 99.8 | 96.5 | 98.3 | 92.4 | 93.3 | 19.5
